Laboratory results as given in US20080076824A1, “Compounds That Inhibit Replication Of Human Immunodeficiency Virus” (priority 2004, published 2008).
Where a name gives a salt, the structure may show the parent alone. Read-outs that look alike come from different tables or passages of the source.

Experiments:
HIV-1 (IIIB) = experiment: microbe, parasite or virus in culture; details: Human immunodeficiency virus 1, IIIB, CCRF-CEM
in vitro = details: human
human PBMC = experiment: Mitogenic activity assay, [3H]dThd incorporation in human PBMC with or without PHA; format: cell-based; details: concentrations up to 200 μg/ml, absence of PHA
Protocol: The mitogenic activity assay was conducted as follows. Human PBMC were isolated from buffy coats and brought in RPMI-1640 cell culture medium supplemented with 10% FCS and 2 mM L-glutamine. The cell cultures were exposed to several concentrations of the test compounds for 3 days in the absence or presence of PHA (phytohemagglutinin) (Murex Biotech Ltd., Dartford, UK) at 2 μg/ml. Subsequently, 0.25 μCi [CH3^−3H]dThd was added and, after 20 hr incubation at 37° C., the cells were precipitated in the presence of 10% TCA and the precipitate was washed twice with 10% TCA, twice with 5% TCA and once with 70% ethanol. The precipitate, containing [^3H]DNA, was then examined for radioactivity in a liquid scintillation counter.

Structure (SMILES): NC(=O)C(N)O (stereo not drawn) [AlphaHGA, α-Hydroxy-glycinamide hydrochloride]
- EC50 (HIV-1 (IIIB); read-out: EC50 (CEM) HIV-1 (IIIB)): 40 ± 8.2 µM
- EC50 (HIV-1 (IIIB); read-out: EC50 (CEM) HIV-1(IIIB)): 43 ± 5.8 µM
- CC50 at 96 hr (in vitro): 606 ± 23 µM
- mitogenic activity against human PBMCs (human PBMC): non-mitogenic
